Laboratory results from patent US20180303853A1, “COMPOSITIONS AND METHODS FOR TREATING BACTERIAL INFECTIONS USING CEFTAROLINE” (priority 2017, published 2018).

Tested on: CYP1A2, CYP2B6, CYP2C8, CYP2C9, CYP2CI9, or CYP3A4/5
Test: CYP induction in human hepatocytes
Assay type: in vitro ADME

Compound: CCO/N=C(\C(=O)N[C@H](C(=O)[O-])[C@@H]1NC(C(=O)[O-])=C(Sc2nc(-c3cc[n+](C)cc3)cs2)CS1)c1nsc(N)n1.[H+] [ceftaroline M-1]
- induction of CYP isoenzymes: not inducers
